# What was measured:
# Assay type in all cases: in vivo
# skin allograft = assay: Prolonging effect on skin allograft survival between MHC-compatible rat strains (LEW donor, F344 recipient)
# From the text: Five animals were included per group, and all rats were bread in separate cages. LEW(RT1^l) was selected as donor, and F344(RT1^lvl) was selected as recipient. A part of dermis (1.8×1.8 cm) on the back of recipient was excised, and after giving several drops of penicillin solution (40,000 U/mL, in saline) thereon, a full thickness skin graft (1.8×1.8 cm) prepared from abdominal part of donor was put thereon. First-aid adhesive tape (30×72 mm) was applied so that the center pad thereof lies on the graft, and secured by binding aeration tape (adhesive bandage, 3.8×15 cm) therearound. At 5 days, the first-aid adhesive tape and the aeration tape were removed by cutting with scissors.
# Drug administration was conducted by orally administering 0.5 mL/100 g B.W. of drug once a day everyday from the day of skin transplantation. Control group was received distilled water. As the CsA, Sandimmun injection (50 mg/mL) diluted in distilled water was administered. As the FK506, the filling of Prograf capsule (Fujisawa Pharmaceutical Co., Ltd.) suspended in distilled water was administered. […] A combinational administration group was received a mixture prepared by mixing liquids to be administered right before administration.
# Grafts were observed everyday from fifth day of transplantation at which the first-aid adhesive tape was removed, and the condition that 90% or more of graft epithelium necrotized to turn brown was determined as occurrence of rejection. Number of days from transplantation to determination of rejection was defined as a survival time.
# Mean value of survival times for each group was calculated as a mean survival time (MST). In each group (n=5), the third-longest survival time was defined as a median value.
# transplanted heart = assay: Prolonging effect on heart graft survival between MHC-incompatible rat strains (DA donor, LEW recipient)
# Description: Effect of KNF-299 was examined in allogeneic heart transplantation between MHC-incompatible rats. Using combination of DA (RT1^a) rat as a donor, and LEW (RT1^l) rat as a recipient, heterotopic heart transplantation in which heart of donor is joined to neck vessel of recipient with a cuff was conducted with reference to a literature (Microsurgery; 21, 16-21, 2001) or the like.
# Drug was administered orally once a day everyday from the day of heart transplantation. MPA was prepared from the product purchased from Wako Pure Chemical Industries, Ltd. so that the concentration was 20 mg/mL in a saline containing 0.5% carboxymethyl cellulose, 0.4% Tween 80, and 0.9% benzyl alcohol, and administered in 0.1 mL/100 g B.W.
# KNF-299 was dissolved in distilled water in a concentration of 0.06 mg/mL, and administered in 0.5 mL/100 g B.W. A control group was received a vehicle used for MPA administration liquid.
# Cardiac pulsation of the transplanted heart was checked by inspection or palpation, and determination of rejection was made when cardiac pulsation stopped. Number of days from transplantation to determination of rejection was defined as survival time. Mean value of survival time in each group was calculated as mean survival time (MST).
# adjuvant arthritis = assay: Rat adjuvant arthritis (AA) model, hind limb volume increase; settings: for Inhibition of adjuvant arthritis (hind limb volume increase): oral once daily, Day 21
# Description: In a footpad of right hind limb of 6 or 7-week-old female LEW/Crj rat (Charles River Japan, Inc.), 0.05 mL (0.6 mg/animal) of killed M. butyricum (12 mg/mL) suspended in liquid paraffin was intradermally injected to cause arthritis (Day 0). Test compound was dissolved or suspended in pure water and orally administered in a volume of 0.5 mL per 100 g of body weight of rat. Adjuvant control was received only pure water. As for the combinational administration group, an aqueous solution of KNF-299 and an aqueous solution of MTX(Sigma) were administered after being mixed before administration. Administration was conducted once a day everyday from Day 0 to end of the experiment. Evaluation of arthritis was made by measuring volumes of left and right hind limbs by using a volume meter (MK-550, Muromachi Kikai) at Day 0, 3, 8, 14, 17, and 21, and determining an increase relative to hind limb at Day 0.
# [1] = FK506 3 mg/kg oral once daily, third test (headed Test 2)
# [2] = KNF-299 0.03 mg/kg oral once daily, Test 2
# [3] = KNF-299 0.1 mg/kg oral once daily, third test (headed Test 2)
compound,measurement,setting,value
"C=CC[C@@H]1/C=C(\C)C[C@H](C)C[C@H](OC)[C@H]2O[C@@](O)(C(=O)C(=O)N3CCCC[C@H]3C(=O)O[C@H](/C(C)=C/[C@@H]3CC[C@@H](O)[C@H](OC)C3)[C@H](C)[C@@H](O)CC1=O)[C@H](C)C[C@@H]2OC [FK506, tacrolimus, reference compound]","Survival time (day) of skin graft, MST",skin allograft; [1],9.2 days
same,"Survival time (day) of skin graft, Median",skin allograft; [1],9.0 days
"NC(CO)(CO)CCc1ccc(Sc2cccc(OCc3ccccc3)c2)cc1Cl [KNF-299, 2-amino-2-[4-(3-benzyloxyphenylthio)-2-chlorophenyl]ethyl-1,3-propanediol]","Survival time (day) of transplanted heart, MST",transplanted heart; KNF-299 0.3 mg/kg oral once daily,7.0 days
same,Prolonging effect on heart graft mean survival time compared to control group,transplanted heart; KNF-299 0.3 mg/kg single administration,1.2 days
same,"Survival time (day) of skin graft, MST",skin allograft; [2],9.0 days
same,"Survival time (day) of skin graft, Median",skin allograft; [2],9.0 days
same,"Survival time (day) of skin graft, MST",skin allograft; [3],8.8 days
same,"Survival time (day) of skin graft, Median",skin allograft; [3],9.0 days
same,"Survival time (day) of skin graft, Median","skin allograft; KNF-299 3 mg/kg oral once daily, Test 1",>30 days
same,Effect on skin graft survival (in words),skin allograft; KNF-299 3 mg/kg single administration,clear prolonging effect
same,Inhibition of adjuvant arthritis (hind limb volume increase),adjuvant arthritis; KNF-299 0.01 mg/kg alone,36%
same,Ability to prevent onset of adjuvant arthritis,"adjuvant arthritis; KNF-299 0.1 mg/kg p.o. once daily, FIG. 1",reaches almost maximum
"COc1c(C)c2c(c(O)c1C/C=C(\C)CCC(=O)O)C(=O)OC2 [MPA, mycophenolic acid, reference compound]","Survival time (day) of transplanted heart, MST",transplanted heart; MPA 20 mg/kg oral once daily,>54.4 days
same,Rejection preventing effect on transplanted heart (in words),transplanted heart; MPA 20 mg/kg single administration,insufficient
"CN(Cc1cnc2nc(N)nc(N)c2n1)c1ccc(C(=O)N[C@@H](CCC(=O)O)C(=O)O)cc1 [MTX, methotrexate]",Inhibition of adjuvant arthritis (hind limb volume increase),"adjuvant arthritis; MTX 0.025 mg/kg alone, not significant",20%
same,Ability to prevent onset of adjuvant arthritis,"adjuvant arthritis; MTX 0.03 mg/kg oral once daily, FIG. 2",not observed
same,Inhibition of adjuvant arthritis (hind limb volume increase),"adjuvant arthritis; MTX 0.05 mg/kg alone, not significant",35%
same,Ability to prevent onset of adjuvant arthritis,"adjuvant arthritis; MTX 0.1 mg/kg oral once daily, FIG. 2",reached maximum
